In brackets after ≈: the same amount, converted by molar mass.
Experiments:
HIV = assay: Testing of preparations against HIV in cell culture (T-cell culture assay); type: cell-based; details: Human immunodeficiency virus 1, 72 h, HIV-infected lymphocytes, 3 days at 37° C., lowest concentration at which no giant cells occurred, read-out: MIC EC50
Experimental: Testing of preparations against HIV in cell culture
Description of the method:
Complete medium additionally contains 20% fetal calf serum and 40 IU/ml recombinant interleukin 2.
Lymphocytes, which have been isolated from fresh donor blood by means of Ficoll® gradient centrifugation, are cultured, for 36 hours at 37° C. and under 5% CO2, in complete medium which additionally contains […] phytohemagglutinin (Wellcome). After 10% DMSO has been added, the cells are frozen at a cell density of 5×10^6 and stored in liquid nitrogen. For the experiment, the cells are thawed, washed in the RPMI medium and cultured for 3 to 4 days in the complete medium.
The test preparations were dissolved in DMSO at a concentration of 16.7 mg/ml, and these solutions were diluted with complete medium to a concentration of 1 mg/ml. 0.4 ml of medium was initially introduced into 24-well multiwell plates. After 0.1 ml of the dissolved preparation had been added to the upper row of the plate, a geometric dilution series was produced by transferring 0.1 ml on each occasion. Preparation-free controls contained 0.4 ml of complete medium containing 0.5% DMSO.
Lymphocyte cultures having a cell count of 5×10^5 cells/ml were infected by adding a 1/50 volume of the supernatant from HIV-infected lymphocyte cultures. The titer of these culture supernatants was determined by end-point dilution to be 1-5×10^6 infectious units/ml. After having been incubated at 37° C. for 30 min, the infected lymphocytes were centrifuged off and taken up once again in the same volume of medium. 0.6 ml of this cell suspension was added to each of the wells in the test plate. The assay mixtures were incubated at 37° C. for 3 days.
The infected cell cultures were examined under the microscope for the presence of giant cells, which are indicative of active viral replication in the culture. The lowest preparation concentration at which no giant cells occurred was determined and taken to be the inhibitory concentration against HIV. As a control, the supernatants from the culture plates were assayed for the presence of HIV antigen using an HIV antigen test in accordance with the manufacturer's (Organon) instructions.

[1] = target: T1, HIV reverse transcriptase (Human immunodeficiency virus type 1 group M subtype B, UniProt P04585); assay: Inhibition of HIV reverse transcriptase (scintillation proximity assay); type: biochemical; details: Reverse transcriptase assay (SPA), 60 min, 37° C.
T1 construct: purchased HT Biotechnology Ltd., Cambridge, UK; host or cells: E. coli
Experimental: Examination of the substances for their ability to inhibit HIV reverse transcriptase
The activity of the reverse transcriptase (RT) was determined using a scintillation proximity assay (SPA).
The reagent kit for the RT SPA was obtained from Amersham/Buchler (Braunschweig). The RT enzyme (derived from HIV and cloned in E. coli) was obtained from HT Biotechnology Ltd., Cambridge, UK.
The test was carried out in accordance with the manufacturer's (Amersham) methods manual, with the following modifications:
Bovine serum albumin was added to the assay buffer to a final concentration of 0.5 mg/ml.
The test was carried out in Eppendorf tubes using an assay mixture volume of 100 μl.
The manufacturer's RT concentrate (5000 U/ml) was diluted to an activity of 15 U per ml using 20 mM tris-HCl buffer, pH 7.2, 30% glycerol.
The assay mixtures were incubated for 60 min (37° C.).
After the reaction had been stopped and "developed" with the bead suspension, 130 μl of assay mixture were transferred into 4.5 ml of 10 mM tris-HCl buffer, pH 7.4, 0.15M NaCl and the tritium activity was measured in a β-counter.
In order to carry out a preliminary test of their inhibitory activity, the substances were dissolved in DMSO (stock solution, c=1 mg/ml) and tested when diluted 10^-1, 10^-2, 10^-3 etc. in DMSO.
In order to determine IC50 values, the stock solutions of inhibitor were further diluted in 50 mM tris-HCl buffer, pH 8, and tested at suitable concentrations.
The concentration associated with 50% inhibition of the enzyme was ascertained from the plot of RT activity against log Cinh.

`CSC[C@H]1C(=S)Nc2ccccc2N1C(=O)OC(C)C` [Example 90] gave an EC50 (HIV) of less than 8 ng/mL and an IC50 [1] of 16.1 nM.
`CCC[C@H]1C(=O)Nc2ccc(F)cc2N1C(=O)OC(C)C` [Example 40] showed an EC50 (HIV) of 80 ng/mL (≈ 0.272 µM) and an IC50 [1] of 34 to 340 nM.
`CC[C@H]1C(=S)Nc2ccccc2N1C(=O)OC(C)C` [Example 86] showed an EC50 (HIV) of 1 ng/mL (≈ 0.00359 µM) and an IC50 [1] of 39.5 nM.
`C=C(C)OC(=O)N1c2cc(Cl)ccc2NC(=S)[C@@H]1C` [Example 140d] was tested, and the EC50 (HIV) was 10 ng/mL (≈ 0.0337 µM) and the IC50 [1] was 91 nM.
For `COC[C@H]1C(=S)Nc2ccc(F)cc2N1C(=O)OC(C)C` [Example 140l], the EC50 (HIV) was 8 ng/mL (≈ 0.0256 µM) and the IC50 [1] was 70.4 nM.
For `CC(C)OC(=O)N1c2cc(F)ccc2NC(=O)[C@@H]1C` [Example 84i], the EC50 (HIV) was 80 ng/mL (≈ 0.3 µM) and the IC50 [1] was 638 nM.
For `CCOc1ccc2c(c1)N(C(=O)OC(C)C)[C@@H](CSC)C(=S)N2` [Example 108], the EC50 (HIV) was less than 5 ng/mL and the IC50 [1] was 22.6 nM.
With `CCC(C)OC(=O)N1c2cc(F)ccc2NC(=S)[C@@H]1CC` (some centres unmarked) [Example 140k] the EC50 (HIV) was 8 ng/mL (≈ 0.0258 µM) and the IC50 [1] was 51.5 nM.
`CCC[C@H]1C(=S)Nc2ccccc2N1C(=O)OC(C)C` [Example 87] gave an EC50 (HIV) of 4 ng/mL (≈ 0.0137 µM) and an IC50 [1] of 92.3 nM.
Work on `CC[C@H]1C(=S)Nc2ccc(F)cc2N1C(=O)OC(C)C` [Example 95] yielded an EC50 (HIV) of 2 ng/mL (≈ 0.00675 µM).
Work on `CC[C@H]1C(=S)Nc2ccc(F)cc2N1C(=O)OCC(C)C` [Example 140j] yielded an EC50 (HIV) of 10 ng/mL (≈ 0.0322 µM) and an IC50 [1] of 48.3 nM.
`CSC[C@H]1C(=S)Nc2ccc(O)cc2N1C(=O)OC(C)C` [Example 140a] showed an EC50 (HIV) of 40 ng/mL (≈ 0.123 µM) and an IC50 [1] of 285 nM.
In the case of `C=C(C)OC(=O)N1c2cc(F)ccc2NC(=O)[C@@H]1CC` [Example 62], the EC50 (HIV) is reported as 80 ng/mL (≈ 0.287 µM) and the IC50 [1] is reported as 331 nM.
`CSC[C@H]1C(=O)Nc2ccc(Cl)cc2N1C(=O)OC(C)C` [Example 38] showed an EC50 (HIV) of less than 1 ng/mL and an IC50 [1] of 15.2 nM.
`CCOC(=O)N1c2cc(F)ccc2NC(=O)[C@@H]1CC` [Example 78] showed an EC50 (HIV) of less than 80 ng/mL and an IC50 [1] of 300 nM.
In the case of `CSC[C@H]1C(=S)Nc2ccc(Cl)cc2N1C(=O)OC(C)C` [Example 94], the EC50 (HIV) is reported as less than 8 ng/mL and the IC50 [1] is reported as 43.5 nM.
`CCOC(=O)N1c2cc(F)ccc2NC(=S)[C@@H]1CC` [Example 134] was tested, and the EC50 (HIV) was 8 ng/mL (≈ 0.0283 µM) and the IC50 [1] was 10.6 nM.
`CC[C@H]1C(=O)Nc2ccc(Cl)cc2N1C(=O)OC(C)C` [Example 35] gave an EC50 (HIV) of less than 80 ng/mL and an IC50 [1] of 33.7 nM.
`CCCOc1ccc2c(c1)N(C(=O)OC(C)C)[C@@H](CSC)C(=S)N2` [Example 110] gave an EC50 (HIV) of 4 ng/mL (≈ 0.0109 µM) and an IC50 [1] of 27.1 to 271 nM.
`CC[C@H]1C(=O)Nc2ccc(OC)cc2N1C(=O)OC(C)C` [Example 43] was tested, and the EC50 (HIV) was less than 1 ng/mL.
`C=CCOC(=O)N1c2cc(Cl)ccc2NC(=S)[C@@H]1C` [Example 140c] showed an EC50 (HIV) of 40 ng/mL (≈ 0.135 µM) and an IC50 [1] of 371 nM.
For `CSC[C@H]1C(=O)Nc2ccccc2N1C(=O)OC(C)C` [Example 34], the EC50 (HIV) was less than 1 ng/mL and the IC50 [1] was 34 to 340 nM.
`CC[C@H]1C(=S)Nc2ccc(O)cc2N1C(=O)OC(C)C` [Example 140b] showed an EC50 (HIV) of less than 80 ng/mL and an IC50 [1] of 238 nM.
`COC[C@H]1C(=O)Nc2ccc(F)cc2N1C(=O)OC(C)C` [Example 84o] was tested, and the EC50 (HIV) was 80 ng/mL (≈ 0.27 µM).
With `CCC[C@H]1C(=O)Nc2ccc(OC)cc2N1C(=O)OC(C)C` [Example 44] the EC50 (HIV) was less than 80 ng/mL.
`C=C(C)OC(=O)N1c2cc(Cl)ccc2NC(=S)[C@@H]1CSC` [Example 115] showed an EC50 (HIV) of 1.6 ng/mL (≈ 0.00467 µM) and an IC50 [1] of 29.2 nM.
`C=CCOC(=O)N1c2cc(Cl)ccc2NC(=S)[C@@H]1CC` [Example 114] showed an EC50 (HIV) of 1.6 ng/mL (≈ 0.00515 µM) and an IC50 [1] of 22.5 nM.
`CCC(C)COC(=O)N1c2cc(OC)ccc2NC(=S)[C@@H]1CSC` (some centres unmarked) [Example 125] was tested, and the IC50 [1] was 40.7 nM.
For `CC[C@H]1C(=S)Nc2ccc(OC)cc2N1C(=O)OC(C)C` [Example 99], the EC50 (HIV) was less than 1 ng/mL and the IC50 [1] was 35.7 nM.
